In US12247017B2, “Herbicidal uracilpyridines” (BASF SE, priority 2019, dated 2025):

Key:
Settings in all cases: application rate 16 g/ha, post-emergence method, scale from 0 to 100
ECHCG = assay: greenhouse herbicidal activity, post-emergence, ECHCG; type: in vivo, Echinocloa crus-galli
Excerpt: (§1) The seeds of the test plants were sown separately for each species. For the pre-emergence treatment, the active ingredients, which had been suspended or emulsified in water, were applied directly after sowing by means of finely distributing nozzles. The containers were irrigated gently to promote germination and growth and subsequently covered with transparent plastic hoods until the test plants had rooted. This cover caused uniform germination of the test plants, unless this had been impaired by the active ingredients. For the post-emergence treatment, the test plants were first grown to a height of 3 to 15 cm, depending on the plant habit, and only then treated with the active ingredients which had been suspended or emulsified in water. For this purpose, the test plants were either sown directly and grown in the same containers, or they were first grown separately as seedlings and transplanted into the test containers a few days prior to treatment. Depending on the species, the test plants were kept at 10-25° C. or 20-35° C., respectively. The test period extended over 2 to 4 weeks. During this time, the test plants were tended, and their response to the individual treatments was evaluated. Evaluation was carried out using a scale from 0 to 100. […]

CHEAL = assay: greenhouse herbicidal activity, post-emergence, CHEAL; type: in vivo, Chenopodium album
Excerpt: as §1

AMARE = assay: greenhouse herbicidal activity, post-emergence, AMARE; type: in vivo, Amaranthus retroflexus
Excerpt: as §1

SETVI = assay: greenhouse herbicidal activity, post-emergence, SETVI; type: in vivo, Setaria viridis
Excerpt: as §1

Row | Compound | herbicidal activity against ECHCG (ECHCG) | herbicidal activity against CHEAL (CHEAL) | herbicidal activity against AMARE (AMARE) | herbicidal activity against SETVI (SETVI)
1 | COC(=O)CCNC(=O)C(C)Sc1nc(-n2c(=O)cc(C(F)(F)F)n(C)c2=O)c(F)cc1Cl (stereo not shown) [Example 1, Methyl 3-[2-[[3-chloro-5-fluoro-6-[3-methyl-2,6-dioxo-4-(trifluoromethyl)pyrimidin-1-yl]-2-pyridyl]sulfanyl]propanoylamino]propanoate] | very good herbicidal activity (a very good herbicidal activity is given at values of at least 85) | very good herbicidal activity (a very good herbicidal activity is given at values of at least 85) | very good herbicidal activity (a very good herbicidal activity is given at values of at least 85) | very good herbicidal activity (a very good herbicidal activity is given at values of at least 85)
2 | CCOC(=O)CCNC(=O)COc1nc(-n2c(=O)cc(C(F)(F)F)n(C)c2=O)c(F)cc1Cl [Example 2] |  | very good herbicidal activity (a very good herbicidal activity is given at values of at least 85) | very good herbicidal activity (a very good herbicidal activity is given at values of at least 85) | very good herbicidal activity (a very good herbicidal activity is given at values of at least 85)
